Results published in publication PMC4503722, “Novel Phenotypic Outcomes Identified for a Public Collection of Approved Drugs from a Publicly Accessible Panel of Assays” (PLoS ONE, 2015).
Like-named read-outs stand apart in the source and are kept apart here.

What was measured:
NCI-H716 cells = assay: cells; assay type: cell-based, Human; conditions: for hNCI-H716 GLP1 Secretion IC50/EC50: assay number 12; for IC50/EC50, hNCI-H716 GLP1 Secretion (assay number 12): concentration response
STC-1 cell line = assay type: cell-based, mouse; conditions: for mSTC-1 GLP1 Secretion IC50/EC50: assay number 13; for IC50/EC50, mSTC-1 GLP1 Secretion (assay number 13): concentration response
[1] = tested on: endothelial tube formation in co-cultures of ECFCs and ADSCs treated with VEGF; assay: cells; assay type: cell-based, human; conditions: Homo sapiens
[2] = tested on: nuclear β-catenin in C2C12 cells; assay: cells; assay type: cell-based; conditions: Mus musculus
INS-1E cells = assay: cells; assay type: cell-based, rat; conditions: Rattus norvegicus, INS-1E, read-out: Ins. sec. EC50
HeLa cells = assay: cells; assay type: cell-based; conditions: Homo sapiens, HeLa, read-out: CellCycle G2/M
DLD-1 = assay: cells; assay type: cell-based; conditions: Homo sapiens
SW480 = assay: cells; assay type: cell-based; conditions: Homo sapiens
HCT116 = assay: cells; assay type: cell-based; conditions: Homo sapiens
[3] = tested on: HCT116 cells treated with a GSK3β inhibitor; assay: cells; assay type: cell-based; conditions: Homo sapiens
Colo320 = assay: cells; assay type: cell-based; conditions: Homo sapiens
HT-29 = assay: cells; assay type: cell-based; conditions: Homo sapiens
RKO = assay: cells; assay type: cell-based; conditions: Homo sapiens, RKO
SNU-C1 = assay: cells; assay type: cell-based; conditions: Homo sapiens
hp70S6K1 (RPS6KB1) = target: T1, hp70S6K1 (RPS6KB1) (Homo sapiens, UniProt P23443); assay: Cerep LANCE kinase assay hp70S6K1 (S1 assay 31); assay type: biochemical; conditions: read-out: p70S6K1
T1 construct: purchased Cerep (LANCE kinase assay platform, contract assay)
T1 sequence (P23443 whole entry): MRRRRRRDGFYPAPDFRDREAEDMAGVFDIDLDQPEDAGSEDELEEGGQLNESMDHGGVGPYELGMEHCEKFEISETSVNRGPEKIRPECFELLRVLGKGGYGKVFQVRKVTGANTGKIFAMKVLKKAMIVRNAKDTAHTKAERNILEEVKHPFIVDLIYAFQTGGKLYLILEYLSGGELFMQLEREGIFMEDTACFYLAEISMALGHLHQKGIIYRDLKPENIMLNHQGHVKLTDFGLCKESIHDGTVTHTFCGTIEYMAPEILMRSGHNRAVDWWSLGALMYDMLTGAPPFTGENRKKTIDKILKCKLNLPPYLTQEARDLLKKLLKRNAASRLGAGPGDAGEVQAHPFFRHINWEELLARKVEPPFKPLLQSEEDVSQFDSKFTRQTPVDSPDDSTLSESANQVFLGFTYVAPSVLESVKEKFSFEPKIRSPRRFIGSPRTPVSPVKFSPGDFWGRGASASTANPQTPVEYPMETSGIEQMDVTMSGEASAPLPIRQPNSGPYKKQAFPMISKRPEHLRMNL

hKDR = target: T2, hKDR (Homo sapiens, UniProt P35968); assay: Cerep LANCE kinase assay hKDR (S1 assay 32); assay type: biochemical; conditions: read-out: KDR
T2 construct: purchased Cerep (LANCE kinase assay platform, contract assay)
T2 sequence (P35968 20-1356): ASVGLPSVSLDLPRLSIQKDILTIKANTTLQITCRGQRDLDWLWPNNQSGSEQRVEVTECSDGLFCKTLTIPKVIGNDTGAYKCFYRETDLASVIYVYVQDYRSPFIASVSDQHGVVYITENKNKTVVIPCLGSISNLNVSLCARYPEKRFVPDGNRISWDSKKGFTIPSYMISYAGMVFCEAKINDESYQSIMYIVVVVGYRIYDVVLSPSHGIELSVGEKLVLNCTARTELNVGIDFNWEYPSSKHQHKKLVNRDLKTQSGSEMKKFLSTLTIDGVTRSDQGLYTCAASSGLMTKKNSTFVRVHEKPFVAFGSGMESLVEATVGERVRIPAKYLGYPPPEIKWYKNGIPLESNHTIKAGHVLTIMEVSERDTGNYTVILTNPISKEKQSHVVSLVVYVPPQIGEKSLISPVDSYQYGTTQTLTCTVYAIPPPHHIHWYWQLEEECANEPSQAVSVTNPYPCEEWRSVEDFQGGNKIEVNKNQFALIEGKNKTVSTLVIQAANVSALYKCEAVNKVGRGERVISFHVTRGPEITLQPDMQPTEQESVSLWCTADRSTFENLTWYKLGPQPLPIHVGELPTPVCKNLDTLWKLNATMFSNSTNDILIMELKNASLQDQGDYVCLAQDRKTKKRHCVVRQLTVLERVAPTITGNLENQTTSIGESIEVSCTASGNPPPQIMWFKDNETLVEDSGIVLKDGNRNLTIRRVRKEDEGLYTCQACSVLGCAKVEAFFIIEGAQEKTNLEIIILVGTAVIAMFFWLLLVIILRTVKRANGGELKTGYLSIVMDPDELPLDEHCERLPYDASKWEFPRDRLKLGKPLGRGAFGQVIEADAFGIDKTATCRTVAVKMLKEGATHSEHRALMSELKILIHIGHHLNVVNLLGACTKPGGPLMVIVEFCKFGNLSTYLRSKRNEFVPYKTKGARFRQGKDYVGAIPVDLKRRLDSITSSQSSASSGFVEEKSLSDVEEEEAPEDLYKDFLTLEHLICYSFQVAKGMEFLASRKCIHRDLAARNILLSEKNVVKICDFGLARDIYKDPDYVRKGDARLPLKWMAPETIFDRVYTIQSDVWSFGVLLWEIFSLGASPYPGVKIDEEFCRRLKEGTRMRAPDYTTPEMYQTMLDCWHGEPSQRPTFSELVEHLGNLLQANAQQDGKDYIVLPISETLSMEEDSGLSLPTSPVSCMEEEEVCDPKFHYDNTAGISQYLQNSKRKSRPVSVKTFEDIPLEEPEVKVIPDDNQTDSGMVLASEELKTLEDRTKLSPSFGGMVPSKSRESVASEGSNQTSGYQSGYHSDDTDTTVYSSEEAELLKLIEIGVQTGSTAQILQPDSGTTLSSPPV

hJAK2 = target: T3, hJAK2 (Homo sapiens, UniProt O60674); assay: Cerep LANCE kinase assay hJAK2 (S1 assay 33); assay type: biochemical; conditions: read-out: JAK2
T3 construct: purchased Cerep (LANCE kinase assay platform, contract assay)
T3 sequence (O60674 whole entry): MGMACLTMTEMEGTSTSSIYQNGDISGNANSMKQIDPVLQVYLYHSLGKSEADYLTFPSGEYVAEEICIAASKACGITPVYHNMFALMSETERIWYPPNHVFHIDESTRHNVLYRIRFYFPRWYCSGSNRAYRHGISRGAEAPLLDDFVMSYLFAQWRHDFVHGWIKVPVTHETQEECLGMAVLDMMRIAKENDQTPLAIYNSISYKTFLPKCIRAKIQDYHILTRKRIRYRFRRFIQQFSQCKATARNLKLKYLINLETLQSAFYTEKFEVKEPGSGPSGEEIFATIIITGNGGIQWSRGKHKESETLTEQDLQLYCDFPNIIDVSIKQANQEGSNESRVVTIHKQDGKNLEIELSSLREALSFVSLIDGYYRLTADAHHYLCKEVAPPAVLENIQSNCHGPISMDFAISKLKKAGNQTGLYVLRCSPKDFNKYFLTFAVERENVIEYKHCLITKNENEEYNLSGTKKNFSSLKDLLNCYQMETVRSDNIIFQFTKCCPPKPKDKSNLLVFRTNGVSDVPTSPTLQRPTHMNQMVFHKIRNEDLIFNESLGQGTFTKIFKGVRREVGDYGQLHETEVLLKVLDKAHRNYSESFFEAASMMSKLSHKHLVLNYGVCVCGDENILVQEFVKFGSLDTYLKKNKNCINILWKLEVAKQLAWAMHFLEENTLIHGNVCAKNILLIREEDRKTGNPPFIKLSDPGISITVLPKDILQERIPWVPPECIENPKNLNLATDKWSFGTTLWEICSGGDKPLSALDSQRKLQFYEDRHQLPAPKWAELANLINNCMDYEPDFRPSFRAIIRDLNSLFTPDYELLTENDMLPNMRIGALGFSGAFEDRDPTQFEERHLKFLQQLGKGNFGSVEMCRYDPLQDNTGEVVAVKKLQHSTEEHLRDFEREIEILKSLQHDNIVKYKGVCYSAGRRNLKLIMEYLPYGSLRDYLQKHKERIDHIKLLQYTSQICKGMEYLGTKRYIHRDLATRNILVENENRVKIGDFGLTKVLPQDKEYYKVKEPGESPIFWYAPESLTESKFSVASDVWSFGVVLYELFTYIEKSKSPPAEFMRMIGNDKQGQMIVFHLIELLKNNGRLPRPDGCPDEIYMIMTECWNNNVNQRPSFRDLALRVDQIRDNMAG

hGSK3b = target: T4, hGSK3b (Homo sapiens, UniProt P49841); assay: Cerep LANCE kinase assay hGSK3b (S1 assay 34); assay type: biochemical; conditions: read-out: GSK3b
T4 construct: purchased Cerep (LANCE kinase assay platform, contract assay)
T4 sequence (P49841 whole entry): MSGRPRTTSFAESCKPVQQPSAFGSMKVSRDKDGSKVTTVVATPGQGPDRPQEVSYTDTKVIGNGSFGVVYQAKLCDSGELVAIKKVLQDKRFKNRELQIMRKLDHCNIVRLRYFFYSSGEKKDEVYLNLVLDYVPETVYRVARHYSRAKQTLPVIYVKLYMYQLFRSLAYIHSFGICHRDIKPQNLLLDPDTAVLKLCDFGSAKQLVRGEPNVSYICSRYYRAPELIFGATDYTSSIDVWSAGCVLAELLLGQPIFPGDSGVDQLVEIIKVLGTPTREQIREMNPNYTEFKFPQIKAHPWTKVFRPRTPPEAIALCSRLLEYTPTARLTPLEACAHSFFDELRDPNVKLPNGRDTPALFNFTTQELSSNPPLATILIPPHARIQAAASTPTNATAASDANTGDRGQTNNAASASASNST

hFLT3 = target: T5, hFLT3 (Homo sapiens, UniProt P36888); assay: Cerep LANCE kinase assay hFLT3 (S1 assay 35); assay type: biochemical; conditions: read-out: FLT3
T5 construct: purchased Cerep (LANCE kinase assay platform, contract assay)
T5 sequence (P36888 27-993): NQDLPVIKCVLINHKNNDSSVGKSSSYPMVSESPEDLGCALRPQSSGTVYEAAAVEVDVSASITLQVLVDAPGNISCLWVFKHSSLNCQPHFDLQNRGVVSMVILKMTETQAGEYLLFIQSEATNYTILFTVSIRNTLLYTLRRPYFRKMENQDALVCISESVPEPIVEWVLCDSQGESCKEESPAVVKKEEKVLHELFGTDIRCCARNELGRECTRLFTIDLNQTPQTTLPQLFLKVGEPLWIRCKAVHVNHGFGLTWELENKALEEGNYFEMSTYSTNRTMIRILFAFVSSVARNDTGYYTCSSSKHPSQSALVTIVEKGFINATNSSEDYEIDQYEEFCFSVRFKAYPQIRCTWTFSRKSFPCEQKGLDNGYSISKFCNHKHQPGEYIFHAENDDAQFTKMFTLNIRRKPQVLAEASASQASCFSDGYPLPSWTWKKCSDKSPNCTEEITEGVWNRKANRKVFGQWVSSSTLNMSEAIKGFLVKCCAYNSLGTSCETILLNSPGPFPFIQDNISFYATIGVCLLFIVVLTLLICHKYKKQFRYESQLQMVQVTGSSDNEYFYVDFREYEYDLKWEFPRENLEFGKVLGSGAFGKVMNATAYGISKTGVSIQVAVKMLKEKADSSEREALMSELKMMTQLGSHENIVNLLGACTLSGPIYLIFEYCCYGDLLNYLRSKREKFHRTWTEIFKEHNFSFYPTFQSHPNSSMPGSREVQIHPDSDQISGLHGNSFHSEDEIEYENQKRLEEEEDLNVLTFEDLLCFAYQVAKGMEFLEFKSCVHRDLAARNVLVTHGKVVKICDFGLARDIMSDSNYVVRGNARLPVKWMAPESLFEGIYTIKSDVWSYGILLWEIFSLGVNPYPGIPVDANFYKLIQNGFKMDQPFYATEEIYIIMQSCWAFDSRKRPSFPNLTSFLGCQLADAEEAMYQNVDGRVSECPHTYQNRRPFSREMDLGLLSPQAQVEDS

Cc1c(C)n(CCN(C)C)c2ccc(C(=O)OCCN(C)C)cc12 [NCGC00164483-03]
hNCI-H716 GLP1 Secretion IC50/EC50 (NCI-H716 cells): > 40 µM
mSTC-1 GLP1 Secretion IC50/EC50 (STC-1 cell line): 1.1962 µM

CC(C)(O)c1ccccc1CC[C@@H](SCC1(CC(=O)[O-])CC1)c1cccc(/C=C/c2ccc3ccc(Cl)cc3n2)c1.[Na+] [NCGC00164568-04]
hNCI-H716 GLP1 Secretion IC50/EC50 (NCI-H716 cells): 20.7101 µM
mSTC-1 GLP1 Secretion IC50/EC50 (STC-1 cell line): > 40 µM

CCOC(=O)[C@@H](N)CS.Cl [NCGC00166061-02]
IC50/EC50, hNCI-H716 GLP1 Secretion (assay number 12) (NCI-H716 cells): > 40 µM
IC50/EC50, mSTC-1 GLP1 Secretion (assay number 13) (STC-1 cell line): 14.3442 µM

O=C1OC2(c3ccccc31)c1cc(I)c(O)c(I)c1Oc1c2cc(I)c(O)c1I [NCGC00166249-03]
hNCI-H716 GLP1 Secretion IC50/EC50 (NCI-H716 cells): > 40 µM
mSTC-1 GLP1 Secretion IC50/EC50 (STC-1 cell line): 2.9301 µM

CCCCCCCCCCCCOCCOCCOCCOCCOCCOCCOCCOCCOCCO [NCGC00166290-03]
hNCI-H716 GLP1 Secretion IC50/EC50 (NCI-H716 cells): > 40 µM
mSTC-1 GLP1 Secretion IC50/EC50 (STC-1 cell line): 30.3683 µM

CCN(CC)CCOC(=O)C(Cc1cccc2ccccc12)CC1CCCO1 (stereo not shown) [NCGC00178213-05]
hNCI-H716 GLP1 Secretion IC50/EC50 (NCI-H716 cells): > 40 µM
mSTC-1 GLP1 Secretion IC50/EC50 (STC-1 cell line): > 40 µM

NC[C@@H]1O[C@H](O[C@H]2[C@@H](O)[C@H](O[C@@H]3[C@@H](O)[C@H](N)C[C@H](N)[C@H]3O[C@H]3O[C@H](CN)[C@@H](O)[C@H](O)[C@H]3N)O[C@@H]2CO)[C@H](N)[C@@H](O)[C@@H]1O [NCGC00179612-03]
IC50/EC50, hNCI-H716 GLP1 Secretion (assay number 12) (NCI-H716 cells): > 40 µM
IC50/EC50, mSTC-1 GLP1 Secretion (assay number 13) (STC-1 cell line): > 40 µM

C#C[C@]1(O)CC[C@H]2[C@@H]3CCC4=CCCC[C@@H]4[C@H]3CC[C@@]21C [NCGC00179676-03]
hNCI-H716 GLP1 Secretion IC50/EC50 (NCI-H716 cells): 27.5211 µM
mSTC-1 GLP1 Secretion IC50/EC50 (STC-1 cell line): > 40 µM

O=C(O)c1cc(N=Nc2ccc([O-])c(C(=O)O)c2)ccc1[O-].[Na+].[Na+] [NCGC00181008-02]
hNCI-H716 GLP1 Secretion IC50/EC50 (NCI-H716 cells): > 40 µM
mSTC-1 GLP1 Secretion IC50/EC50 (STC-1 cell line): 9.5352 µM

CCCOC(C(=O)OC1CCN(C)CC1)(c1ccccc1)c1ccccc1.Cl [NCGC00181103-02]
hNCI-H716 GLP1 Secretion IC50/EC50 (NCI-H716 cells): > 40 µM
mSTC-1 GLP1 Secretion IC50/EC50 (STC-1 cell line): 23.8177 µM

O=C(Nc1cccc2c(=O)cc(-c3nn[nH]n3)oc12)c1ccc(OCCCCc2ccccc2)cc1 [NCGC00181765-01]
hNCI-H716 GLP1 Secretion IC50/EC50 (NCI-H716 cells): > 40 µM
mSTC-1 GLP1 Secretion IC50/EC50 (STC-1 cell line): > 40 µM

Cc1nnc2n1-c1sc(CCc3ccc(CC(C)C)cc3)cc1C(c1ccccc1Cl)=NC2C (stereo not shown) [NCGC00183008-01]
hNCI-H716 GLP1 Secretion IC50/EC50 (NCI-H716 cells): 24.6779 µM
mSTC-1 GLP1 Secretion IC50/EC50 (STC-1 cell line): > 40 µM

Cc1c(C)c2c(c(C)c1OC(=O)CCC(=O)OCCO)CC[C@@](C)(CCC[C@H](C)CCC[C@H](C)CCCC(C)C)O2 [NCGC00183103-01]
hNCI-H716 GLP1 Secretion IC50/EC50 (NCI-H716 cells): > 40 µM
mSTC-1 GLP1 Secretion IC50/EC50 (STC-1 cell line): > 40 µM

COc1cc(Nc2c(C#N)cnc3cc(OCCCN4CCN(C)CC4)c(OC)cc23)c(Cl)cc1Cl [NCGC00241107-02]
hNCI-H716 GLP1 Secretion IC50/EC50 (NCI-H716 cells): 25.1177 µM
mSTC-1 GLP1 Secretion IC50/EC50 (STC-1 cell line): > 40 µM

Nc1ccc(Cl)cc1C(=O)c1ccccc1F [NCGC00253725-01]
hNCI-H716 GLP1 Secretion IC50/EC50 (NCI-H716 cells): > 40 µM
mSTC-1 GLP1 Secretion IC50/EC50 (STC-1 cell line): > 40 µM

COc1cc(NCc2ccc3nc(N)nc(N)c3c2C)cc(OC)c1OC [trimetrexate, reference compound]
IC50 ([1]; read-out: Anti-Angio IC50): 4.4 µM
IC50 ([1]; read-out: Anti-Angiogenesis): 4.42 µM
EC50 ([2]; C2C12, read-out: Wnt Pathway): 0.0033 µM
EC50 ([2]; C2C12, read-out: Wnt pot. EC50): 0.003 µM
EC50 (INS-1E cells): > 10 µM
EC50 (NCI-H716 cells; Homo sapiens, NCI-H716, read-out: GLP1 sec. EC50): > 10 µM
EC50 (HeLa cells): > 10 µM
IC50 (DLD-1; DLD-1, 72 h, read-out: DLD-1 viab. IC50): 0.2 µM
IC50 (DLD-1; DLD-1, read-out: Basal_Viability ATP DLD-1): 0.195 µM
IC50 (SW480; SW480, 72 h, read-out: SW480 viab. IC50): 0.059 µM
IC50 (SW480; SW480, read-out: Basal_Viability ATP SW480): 0.0591 µM
IC50 (HCT116; HCT-116, 72 h, read-out: HCT-116 viab. IC50): 0.023 µM
IC50 (HCT116; HCT-116, read-out: Basal_Viability ATP HCT116): 0.0231 µM
IC50 ([3]; HCT-116, 72 h, read-out: HCT-116 (GSK3β) viab. IC50): 0.004 µM
IC50 ([3]; HCT-116, read-out: GSK3b inh pretreated_Viability ATP HCT116): 0.00392 µM
IC50 (Colo320; COLO 320, 72 h, read-out: Colo320 viab. IC50): 0.39 µM
IC50 (Colo320; COLO 320, read-out: Basal_Viability ATP Colo 320): 0.386 µM
IC50 (HT-29; HT-29, 72 h, read-out: HT-29 viab. IC50): 0.021 µM
IC50 (HT-29; HT-29, read-out: Basal_Viability ATP HT-29): 0.0212 µM
IC50 (RKO; 72 h, read-out: RKO viab. IC50): 0.003 µM
IC50 (RKO; read-out: Basal_Viability ATP RKO): 0.00272 µM
IC50 (SNU-C1; SNU-C1, 72 h, read-out: SNU-C1 viab. IC50): 5.1 µM
IC50 (SNU-C1; SNU-C1, read-out: Basal_Viability ATP SNU-C1): 5.13 µM
IC50 (hp70S6K1 (RPS6KB1)): > 20 µM
IC50 (hKDR): > 20 µM
IC50 (hJAK2): > 20 µM
IC50 (hGSK3b): > 20 µM
IC50 (hFLT3): > 20 µM
